From patent publication US10124035B2, “DISC-1 pathway activators in the control of neurogenesis” (Massachusetts Institute of Technology, priority 2008, dated 2018) come the findings set out here.

This series relates to neural progenitors in embryonic mouse brains. Kind of series: In utero electroporation of shRNA into E13 embryonic mouse brains. Type of series: in vivo. The text has this: • Mice. Swiss Webster pregnant female mice were purchased from Taconic (Hudson, N.Y.). • Cell Culture. AHPs were kindly provided by Dr. Gage (Lie, D. C. et al. Wnt signaling to regulates adult hippocampal neurogenesis. Nature 437, 1370-5 (2005)) and cultured under conditions described previously (Palmer, T. D., Takahashi, J. & Gage, F. H. The adult rat hippocampus contains primordial neural stem cells. Mol Cell Neurosci 8, 389-404 (1997)). Primary neural progenitors were isolated from E14 mouse embryos and cultured as described previously (Sanada, K. & Tsai, L. H. G protein betagamma subunits and AGS3 control spindle orientation and asymmetric cell fate of cerebral cortical progenitors. Cell 122, 119-31 (2005)). N2a and 293T cells were cultured in DMEM medium containing 10% FBS, L-glutamine, and penicillin/streptomycin. Wnt3a expressing L cells and untransfected L cells were obtained from ATCC (Manassas, Va.). Wnt3a conditional medium was produced according to the ATCC protocol. To induce AHP differentiation, FGF2 was removed from the culture medium and 1 μM retinoic acid/1% FBS was added to the medium for 4 days. • Reagents. Recombinant Wnt3a protein was obtained from Chemicon (Rosemont, Ill.). FGF2 was obtained from PeproTech (Rocky Hill, N.J.). Recombinant GST-GSK3β was obtained from Active Motif (Carlsbad, Calif.). Recombinant GST-β-catenin and GST-axin were obtained from Millipore (Billerica, Mass.). The GSK313 inhibitor, SB-216763, AR-A104418 and His-GSK3β, were obtained from Sigma-Aldrich (Sigma-Aldrich, St. Louis, Mo.). L803-MTS was obtained from Calbiochem (San Diego, Calif.). GST-AKT1 was obtained from Cell Signaling (Beverly, Mass.). GST-CASK-1 (CASK fragment from 316-415aa), GST-CASK-2 (CASK fragment from 777-974aa), and GST-p25 proteins were kindly provided by Dr. B. A. Samuels. Mouse DISC1 peptidel (40-78aa: GYMRSTAGSG IGFLSPAVGMPHPSSAG LTGQQSQHSQS; SEQ ID NO: 1) and Mouse DISC1 peptide 2 (195-238aa, […] GERGEAEGCLPSREAE; SEQ ID NO: 2) were synthesized by Chi Scientific (Maynard, Mass.). • Antibodies. The primary antibodies used in this study were the following: rabbit anti-DISC1 C-terminal antibody, mouse and rabbit anti-GFP antibodies (Invitrogen, Carlsbad, Calif.); affinity purified rabbit anti-DISC1 antibody (Novus, Littleton, Colo.) for immunohistochemistry; mouse anti-FLAG and mouse anti-Actin antibody; mouse anti-GSK3β antibody, mouse anti-β-catenin antibody, mouse anti-pY216 GSK3β antibody, and mouse anti-nestin antibody (BD Biosciences, San Diego, Calif.); rabbit anti-[…] β-catenin antibody, rabbit anti-pS9 GSK3β antibody, and mouse anti-cyclin to D1 antibody (Cell Signaling); mouse anti-Dv12 antibody, mouse anti-HA antibody, mouse anti-GST antibody, mouse anti-ubiquitin antibody, and rabbit anti-β-catenin antibody (Santa Cruz, Santa Cruz, Calif.); mouse Tuj-1 antibody (BABCO, Harrisburg, Pa.); mouse anti-BrdU antibody (DakoCytomation, Glostrup, Denmark); guinea pig anti-doublecortin antibody (Chemicon, Rosemont, Ill.); chicken anti-GFP antibody (Ayes Labs, Tigard, Oreg.); rabbit anti-pS10 Histone H3 antibody (Upstate, Lake Placid, N.Y.). • Constructs. The sequences for shRNAs targeting DISC1 are as follows: control shRNA: 5′-CGGCTGAAACAAGAGTTGG-3′ (SEQ ID NO:3); DISC1 shRNA-1: 5′-GGCAAACACTGTGA AGT GC-3′ (SEQ ID NO:4); DISC1 shRNA-2: 5′-[…]-3′ (SEQ ID NO:5)(Kamiya A. et al. A schizophrenia-associated mutation of DISC1 perturbs cerebral cortex development. Nat. Cell Biol 7, 1167-78 (2005)). DISC1 shRNA-1 recognizes both rat and mouse DISC1. […]

Where [1] appears, read: electroporated at E13, analyzed 3 days later.

As for “DISC1 shRNA-1: shRNA targeting rat and mouse DISC1, SEQ ID NO:4, in pLentiLox 3.7 vector (GGCAAACACTGTGAAGTGC)”, under “BrdU 2 hours prior to collection”, the BrdU labeling came out at 18.2±2.2%. Moreover, where the note is “electroporated E13, BrdU at E15, collected E16”, the “cell cycle exit index” value came out at 53.2±6.1%. In addition, the “GFP+Dcx+ cells” value (electroporated E13, sacrificed E16, SVZ) is reported as 36.7±4.2%. Further, under setting [1], the “GFP positive cells in the VZ/SVZ” value is 13% and the “GFP positive cells in the cortical plate” value worked out at 59.6%. This substance also had a mitotic index (pH3, electroporated E13, sacrificed E15) of 3.8±0.8%.
